Our source for the IC50 values is US7273882B2, “Aminoacetamide acyl guanidines as β-secretase inhibitors” (priority 2006, dated 2007).

Read-outs that look alike come from different tables or passages of the source. Some results are limits rather than exact numbers.

This assay deals with T1, BACE1 enzyme (Homo sapiens, UniProt P56817).
T1 construct: was derived from HEK293 cells; endogenous in cells; washed 48,000 x g pellet of the cell homogenate
In words: Radioligand displacement (binding) assay with radiolabeled BACE inhibitor on HEK293-9B.A1 cell homogenate. From the text:
There are a number of methods by which inhibitors of the BACE enzyme can be identified experimentally. The enzyme can be obtained from membrane samples from natural tissues or cultured cells or can be expressed recombinantly in a host cell by well known methods of molecular biology. The whole enzyme or a portion thereof can be expressed, for example, in bacterial, insect or mammalian cells to obtain a catalytically active enzyme species. The enzymatic activity and/or ligand binding capability of the enzyme can be assessed within these membrane samples, or the enzyme can be purified to varying extents. As an illustrative example, the nucleic acid sequence encoding the pro and catalytic domains of human BACE can be appended on the 5′ end with an untranslated and signal sequence from the gene for acetylcholinesterase, and on the 3′ end with a sequence encoding a poly-histidine tag. This cDNA can then be expressed in Drosophila melanogaster S2 cells in which the signal and pro sequences of the transcribed/translated protein are removed by cellular proteases and the catalytic domain, appended by a C-terminal poly-histidine tag, is secreted out into the cellular medium. The enzyme can then be purified from the culture medium by nickel affinity chromatography by methods well known to those trained in the art [Mallender, W. et al., (2001) “Characterization of recombinant, soluble beta-secretase from an insect cell expression system.” Mol. Pharmacol. 59: 619-626]. Similar strategies for expressing and purifying various forms of BACE in bacterial, mammalian and other cell types would be known to one skilled in the art., A preferred method for determining the potency of a test compound in binding to the BACE enzyme is by monitoring the displacement of a suitable radioligand.
Radioligand displacement assays with a radiolabeled BACE inhibitor (WO 2004 013098, compound 3, where the methoxy group is substituted for C(^3H)3) were carried out using standard methods (Keen, M. (1999) in Receptor Binding Techniques (Walker, J. M. ed) p. 106 Humana Press, Totowa, N.J.). The HEK293-9B.A1 cell line, which overexpresses the BACE1 enzyme, was derived from HEK293 cells (Simmons, N. L. (1990) A cultured human renal epithelioid cell line responsive to vasoactive intestinal peptide. Exp. Physiol. 75:309-19.) by RAGE™ (Harrington, J. J. et al. (2001) Creation of genome-wide protein expression libraries using random activation of gene expression. Nat. Biotechnol. 19:440-5.; U.S. Pat. Nos. 6,410,266 and 6,361,972). T225 flask cultures of HEK293-9B.A1 were grown to 80% confluency in DMEM supplemented with 2 mM L-glutamine, 10 μg/ml penicillin, 10 μg/ml streptomycin, 3 μg/ml puromycin, 100 nM methotrexate, and 10% fetal bovine serum (Invitrogen, Carlsbad, Calif.), harvested, and resuspended at 2×10^8 cells per 10 ml of lysis buffer consisting of 50 mM HEPES pH 7.0 containing a protease inhibitor cocktail of AEBSF 104 μM, aprotinin 80 nM, leupeptin 2 μM, bestatin 4 μM, pepstatin A 1.5 μM, and E-64 1.4 μM (0.1% of protease inhibitor cocktail P8340, Sigma-Aldrich, St. Louis, Mo.) at 4° C. The resuspended cells were homogenized using a Polytron (Brinkman, Westbury, N.Y.) at setting 6 for 10 sec., then centrifuged at 48,000×g for 10 min. The resulting pellet was washed by repeating the resuspension, homogenization and centrifugation steps. The final pellet was resuspended in buffer at 4° C. to yield a total protein concentration of 5 mg/ml, then aliquots were frozen in liquid nitrogen for further storage at −70° C. Immediately before carrying out a binding assay, an aliquot of cell homogenate was thawed and diluted to a concentration of 100 μg/ml in assay buffer consisting of 50 mM HEPES pH 5.0 and 0.1% CHAPSO. […]
In general terms: Displacement assays read how much labelled ligand stays bound in the presence of the test substance.

The mark [1] stands for this setting: radioligand displacement, HEK293-9B.A1 cell homogenate overexpressing BACE1, read-out: Activity Rating (activity based on IC50 values).

T1 sequence (P56817 46-501): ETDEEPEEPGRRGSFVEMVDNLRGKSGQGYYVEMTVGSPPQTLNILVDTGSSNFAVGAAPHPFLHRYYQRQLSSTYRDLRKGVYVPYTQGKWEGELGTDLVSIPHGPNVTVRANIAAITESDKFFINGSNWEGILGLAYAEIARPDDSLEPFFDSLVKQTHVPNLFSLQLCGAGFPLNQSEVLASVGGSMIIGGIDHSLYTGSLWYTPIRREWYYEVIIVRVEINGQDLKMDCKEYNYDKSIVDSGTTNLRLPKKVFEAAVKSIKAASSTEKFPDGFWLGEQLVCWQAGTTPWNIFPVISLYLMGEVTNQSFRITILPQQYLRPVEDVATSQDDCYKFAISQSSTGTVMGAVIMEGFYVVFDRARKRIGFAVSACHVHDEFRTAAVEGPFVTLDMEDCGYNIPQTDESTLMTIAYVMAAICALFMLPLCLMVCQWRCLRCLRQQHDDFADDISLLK

Consider `Cc1noc(-c2ccccc2)c1C(=O)/N=C(\N)NCc1cc(Cl)c(N)c(Cl)c1` [Example 22], for which the half-maximal inhibitory concentration (IC50) (usually the midpoint of a concentration-inhibition curve) fell in the range of 100 to 1000 nM.

With `COc1ccc(-c2n[nH]c(C)c2C(=O)N=C(N)NCc2cc(Cl)c(N)c(Cl)c2)cc1` [Example 132], the half-maximal inhibitory concentration (IC50) was in the range of 100 to 1000 nM.

Compound `COc1ccc(-c2nsc(C)c2C(=O)NC(N)=NCc2cc(C)c(NC(C)=O)c(Cl)c2)cc1` [Example 144] came in with an IC50 of under 100 nM.

Turning to `COc1ccc(-c2noc(C)c2C(=O)/N=C(/N)NCc2cc(Cl)c(N)c(Br)c2)cc1` [Example 148, N-((3-Bromo-4-amino-5-chlorobenzylamino)(amino)methylene)-3-(4-methoxyphenyl)-5-methylisoxazole-4-carboxamide], the IC50 is 100 to 1000 nM.

Compound `COc1ccc(-c2nsc(C)c2C(=O)/N=C(/N)NCc2cc(Cl)c(N)c(Cl)c2)cc1` [Example 149, N-((4-amino-3,5-dichlorobenzylamino)(amino)methylene)-3-(4-methoxyphenyl)-5-methylisothiazole-4-carboxamide] had a half-maximal inhibitory concentration (IC50) of under 100 nM.

`COc1ccc(-c2nsc(C)c2C(=O)/N=C(/N)NCc2cc(Cl)c(N)c(Br)c2)cc1` [Example 150, N-((3-Bromo-4-amino-5-chlorobenzylamino)(amino)methylene)-3-(4-methoxyphenyl)-5-methylisothiazole-4-carboxamide] returned a half-maximal inhibitory concentration (IC50) of under 100 nM.

In the case of `COC/C=C/c1cc(Cl)cc(CN/C(N)=N/C(=O)c2c(-c3ccc(OC)cc3)noc2C)c1` [Example 152, N-((3-chloro-5-((E)-3-methoxyprop-1-enyl)benzylamino)(amino)methylene)-3-(4-methoxyphenyl)-5-methylisoxazole-4-carboxamide], the IC50 was in the range of 100 to 1000 nM.

Turning to `COC/C=C/c1cc(CN/C(N)=N/C(=O)c2c(-c3ccc(OC)cc3)noc2C)cc(Cl)c1N` [Example 153, N-((4-amino-3-chloro-5-((E)-3-methoxyprop-1-enyl)benzylamino) (amino)methylene)-3-(4-methoxyphenyl)-5-methylisoxazole-4-carboxamide], the IC50 was under 100 nM.

For `COC/C=C/c1cc(CN/C(N)=N/C(=O)c2c(-c3ccc(OC)cc3)nsc2C)cc(Cl)c1N` [Example 154, N-((4-amino-3-chloro-5-((E)-3-methoxyprop-1-enyl)benzylamino) (amino)methylene)-3-(4-methoxyphenyl)-5-methylisothiazole-4-carboxamide], the IC50 is under 100 nM.

The compound `COc1ccc(-c2noc(C)c2C(=O)N=C(N)NCc2cc(Cl)cc(C=CCCO)c2)cc1` [Example 168] came in with an IC50 of 100 to 1000 nM.

Turning to `CCOC(=O)NCc1cc(Cl)cc(CN/C(N)=N/C(=O)c2c(-c3ccc(OC)cc3)noc2C)c1` [Example 203], the IC50 lay within 100 to 1000 nM.

Compound `COc1ccc(-c2nsc(C)c2C(=O)/N=C(\N)NCc2cc(Cl)cc(CNC(=O)/C=C/c3ccccc3)c2)cc1` [Example 237, N-(((E)-3-chloro-5-(cinnamamidomethyl)benzylamino)(amino)methylene)-3-(4-methoxyphenyl)-5-methylisothiazole-4-carboxamide] came in with an IC50 of under 100 nM.

As to `COc1ccc(-c2nsc(C)c2C(=O)/N=C(\N)NCc2cc(Cl)c(NC(C)=O)c(Cl)c2)cc1` [Example 279, (E)-N-((4-acetamido-3,5-dichlorobenzylamino)(amino)methylene)-3-(4-methoxyphenyl)-5-methylisothiazole-4-carboxamide], the half-maximal inhibitory concentration (IC50) was under 100 nM.

For the compound `COc1ccc(-c2noc(C)c2C(=O)/N=C(\N)NCc2cc(Cl)c(NC(=O)CN(C)C)c(Cl)c2)cc1` [Example 280, (E)-N-((3,5-dichloro-4-(2-(dimethylamino)acetamido)benzylamino)(amino)methylene)-3-(4-methoxyphenyl)-5-methylisoxazole-4-carboxamide], the IC50 under setting [1] is under 100 nM.

In the case of `COc1ccc(-c2nsc(C)c2C(=O)/N=C(\N)NCc2cc(Cl)c(NC(=O)CN(C)C)c(Cl)c2)cc1` [Example 327], under setting [1], the half-maximal inhibitory concentration (IC50) was under 100 nM.
